From US11912718B2, “Solid forms of a thienopyrimidinedione ACC inhibitor and methods for production thereof” (Gilead Apollo, LLC, priority 2016, dated 2024)
In brackets after ≈: the same amount, converted by molar mass. Each block holds one compound with its values, some of them ahead of it.

Key:
[1] = target: ACC1 (Homo sapiens, UniProt Q13085); assay: Inhibition of ACC1 by metabolites of Compound 1; type: biochemical
[2] = Aqueous solubility; type: physicochemical
Procedure: Purity and concentration analyses were carried out using the following method: […]

[3] = Dynamic vapor sorption (DVS); type: physicochemical; conditions: for state or form of the material after the DVS experiment: post DVS, XRPD
From the text: For DVS analysis as discussed in Example 8, approximately 10 milligrams of sample was placed into a mesh vapor sorption balance pan and loaded into a DVS-1 dynamic vapor sorption balance (Surface Measurement Systems). The sample was subjected to a ramping profile from 0-90% relative humidity (RH) at 10% increments, maintaining the sample at each step until a stable weight had been achieved (99.5% step completion). After completion of the sorption cycle, the sample was dried using the reverse procedure, lowering the RH to 0%. The weight change during the sorption/desorption cycles was plotted.
For Examples 2, 5, 7, 9, and 13 to 18, hygroscopicity was studied using dynamic vapor sorption (DVS, TA Q5000 SA, TA Instruments, New Castle, Del. or DVS, DVS Intrinsic, Surface Measurement Systems, London, UK). A sample (2-20 mg) was placed in an aluminum DVS pan and loaded on the sample side of the twin pan balance. The water sorption and desorption were studied as a function of relative humidity (RH) at 25° C. In 10% RH increments, the relative humidity was increased from 5% RH to 95% RH and then decreased back to 5%. […] Data analysis was performed using Universal Analysis 2000 Version 4.7A (TA Instruments, New Castle, Del.) for TA DVS runs and Microsoft Excel for SMS DVS runs.

[4] = Storage stability at 40° C. and 75% RH; type: physicochemical; conditions: 7 days at 40° C. and 75% RH
Procedure: 100 milligrams of Form IV of Compound 1, prepared according to the method of Example 5, was heated to 80° C. in an oven. Form VII was confirmed to be a desolvated form of Form IV, produced by drying the methanol solvate Form IV. […] Differential scanning calorimetry (DSC) results (FIG. 40) were consistent with thermogravimetric analysis. […] (peak at 141.4° C.), with the peak of the exotherm at 151.6° C. […] (peak at 195.0° C.). A smaller endotherm with a peak at 207.0° C. was likely to indicate formation of a higher melting crystalline form. […] The uptake between 40 and 70% RH could potentially be indicative of hydrate formation (tentatively assigned the name Form IX). […] NMR and IR data confirmed the structural integrity of Compound 1 present.

[5] = Prolonged exposure to water (XRPD); type: physicochemical
[6] = Competitive slurrying of crystal forms; type: physicochemical
[7] = system: ACC1; conditions: enzyme isolated from rat, mouse, monkey and human; cited from earlier work
[8] = system: ACC2; conditions: enzyme isolated from rat, mouse, monkey and human; cited from earlier work
[9] = Log P and Log D determination (potentiometric); type: physicochemical; conditions: octanol/water, pH 7.4
Procedure: Log P analysis was performed using a potentiometric (pH-metric) method. The sample was titrated in various ratios of octanol/water in two titrations covering the pH range from 1.9 to 12.0 at concentrations of 1.0 to 0.6 mM. The shift of the aqueous pKa in the presence of octanol was used to determine log P of the neutral and anionic species. From this information a lipophilicity profile was constructed, such that that log D at a given pH could be determined.

[10] = acetone, acetonitrile:water (10%), ethanol, ethyl acetate, ambient temperature and 60° C., XRPD and DSC

SMILES: COc1ccccc1[C@H](Cn1c(=O)n(C(C)(C)C(=O)OC2OC(C(=O)O)C(O)C(O)C2O)c(=O)c2c(C)c(-c3ncco3)sc21)OC1CCOCC1 (stereo partly drawn) [M+glucuronide conjugate]
- IC50 [1]: 5 nM

SMILES: COc1ccccc1[C@H](Cn1c(=O)n(C(C)(C)C(=O)O)c(=O)c2c(C)c(-c3ncco3)sc21)OC1CCOCC1 [Form VII]
- solubility ([2]; water): 109 µg/mL (≈ 191 µM)
- water uptake (DVS) ([3]; at 90% RH): > 4%
- state or form of the material after the DVS experiment [3]: no change in form
- chemical and physical stability on storage [4]: chemically and physically stable
- purity after storage [4]: 99.85%
- form change on prolonged exposure to water [5]: conversion of Form VII to Form I
- result of competitive slurrying with Form I [6, 10]: conversion to Form I

SMILES: O=C(c1c2ccccc2cc2ccccc12)N1CCC(N2CCC[C@@H](C(=O)N3CCOCC3)C2)CC1 [CP-640186]
- IC50 [7]: ~60 nM
- IC50 [8]: ~60 nM

SMILES: Cc1c(-c2ncco2)sc2c1c(=O)n(C(C)(C)C(=O)O)c(=O)n2C[C@H](OC1CCOCC1)c1ccccc1O [M-CH3 metabolite]
- IC50 [1]: 22 nM

Other lines, results leading:

- solubility ([2]; aqueous medium, aqueous buffer, pH 5.5 and below): < 10 µg/mL
- logD [9]: 1.06
- weight gain (moisture sorption) ([3]; at about 95% RH): ~0.45%
- state or form of the material after the DVS experiment [3]: had not changed forms
- relative thermodynamic stability ([6]; between 22-60° C.): more thermodynamically stable form
SMILES: COc1ccccc1[C@H](Cn1c(=O)n(C(C)(C)C(=O)O)c(=O)c2c(C)c(-c3ncco3)sc21)OC1CCOCC1 [Form I]

- result of competitive slurrying with Form I ([6]; 1:1 ratio in 6:4 ethanol:water, room temperature, about two weeks, XRPD): conversion to Form I
- result of competitive slurrying with Form I [6, 10]: conversion to Form I
SMILES: COc1ccccc1[C@H](Cn1c(=O)n(C(C)(C)C(=O)O)c(=O)c2c(C)c(-c3ncco3)sc21)OC1CCOCC1 [Form VIII]
